For eleven compounds, TGI results are on record in PubChem BioAssay (NCI).

Some test systems named below: MOLT-4 leukemia; CCRF-CEM leukemia; SNB-19 CNS; TK-10 renal; UO-31 renal; SK-MEL-5 melanoma; EKVX NSCLC; MDA-N; MDA-MB-231 breast; RPMI-8226 leukemia.
Common to all, as to test: NCI tumour cell line growth inhibition, 48 h

SMILES strings stand for the structures.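 Where inhibition never reached the appropriate level, the endpoint shown equals the highest concentration tested. Otherwise, values were interpolated linearly from a five-concentration, 48-hour dose response in 96-well plates. The concentration for full growth arrest is given as TGI.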

For `COc1ccc(C2CC(c3cc4c(C)c(C(=O)c5ccccc5)oc4cc3O)=Nc3ccccc3S2)cc1OC` (stereo not given), the TGI with MOLT-4 leukemia is greater than 100 µM; in the assay with CCRF-CEM leukemia it was greater than 100 µM; with SNB-19 CNS, greater than 85.8 µM; with TK-10 renal, greater than 100 µM; with UO-31 renal it was greater than 100 µM; in the assay with SK-MEL-5 melanoma it was greater than 100 µM. Moreover, the TGI was greater than 100 µM in the assay on EKVX NSCLC, greater than 61.6 µM in the assay on MDA-N, greater than 100 µM in the assay with MDA-MB-231 breast and greater than 100 µM in the assay on RPMI-8226 leukemia.

As to `Oc1ccc(-c2cc(-c3c(O)cc(O)cc3O)on2)cc1`, the TGI in the assay with MOLT-4 leukemia, in the assay with CCRF-CEM leukemia, with SNB-19 CNS, with TK-10 renal, with UO-31 renal and in the assay with SK-MEL-5 melanoma was greater than 100 µM in each case. Besides, the TGI in the assay on EKVX NSCLC, in the assay on MDA-N, with MDA-MB-231 breast and in the assay on RPMI-8226 leukemia was greater than 100 µM throughout.

For `CCOC(=O)CC(C)C(C#N)(OP1(=O)OC(c2ccccc2)C(C)N1C)c1ccccc1` (stereo not given), the TGI in the assay on MOLT-4 leukemia is 73.1 µM; in the assay on CCRF-CEM leukemia, greater than 100 µM; in the assay with SNB-19 CNS it was greater than 100 µM; with TK-10 renal, greater than 100 µM; in the assay on UO-31 renal, greater than 100 µM; with SK-MEL-5 melanoma, greater than 100 µM. Moreover, the TGI in the assay on EKVX NSCLC, with MDA-N, with MDA-MB-231 breast and in the assay with RPMI-8226 leukemia was greater than 100 µM each time.

As for `Cc1cc(-c2ccc(C(=O)C(Cl)(Cl)Cl)[nH]2)on1`, the TGI with MOLT-4 leukemia is greater than 100 µM; with CCRF-CEM leukemia, greater than 100 µM; in the assay with SNB-19 CNS, greater than 100 µM; in the assay with TK-10 renal it was 69.1 µM; in the assay with UO-31 renal it was 56.7 µM; in the assay with SK-MEL-5 melanoma, greater than 100 µM. Also, the TGI is greater than 100 µM in the assay with EKVX NSCLC, greater than 100 µM with MDA-N, 60.1 µM with MDA-MB-231 breast and greater than 100 µM in the assay with RPMI-8226 leukemia.

For `Fc1cccc(F)c1C1SCC2=Nc3ccccc3CN21` (stereo not given), the TGI with MOLT-4 leukemia, in the assay on CCRF-CEM leukemia, in the assay with SNB-19 CNS, with TK-10 renal, in the assay with UO-31 renal and in the assay with SK-MEL-5 melanoma was greater than 100 µM throughout. The TGI in the assay on EKVX NSCLC, in the assay on MDA-N, with MDA-MB-231 breast and with RPMI-8226 leukemia was greater than 100 µM throughout.

Consider `c1ccc(COc2ccc(C[P+](c3ccccc3)(c3ccccc3)c3ccccc3)cc2)cc1`, for which the TGI in the assay with MOLT-4 leukemia amounted to 1.94 µM; in the assay with CCRF-CEM leukemia it was 7.28 µM; in the assay on SNB-19 CNS, 14.8 µM; in the assay with TK-10 renal, 1.66 µM; with UO-31 renal, 11 µM; in the assay on SK-MEL-5 melanoma, 0.284 µM. In addition, the TGI with EKVX NSCLC stood at 3.04 µM; with MDA-N, 5.86 µM; in the assay on MDA-MB-231 breast it was 4.86 µM; in the assay with RPMI-8226 leukemia, 0.201 µM.

With `CN(C)CC1CCC/C(=C\c2ccc(N(C)C)cc2)C1=O` (stereo not given), the TGI with MOLT-4 leukemia was greater than 100 µM; in the assay on CCRF-CEM leukemia, greater than 100 µM; with SNB-19 CNS it was 31.9 µM; with TK-10 renal, 4.96 µM; in the assay with UO-31 renal, 22.2 µM; in the assay with SK-MEL-5 melanoma, 31.4 µM. Also, the TGI was 30.4 µM in the assay with EKVX NSCLC, 19.6 µM in the assay on MDA-N, 15.7 µM in the assay with MDA-MB-231 breast and greater than 100 µM in the assay on RPMI-8226 leukemia.

For `O=C1N[C@H]2c3c(Cl)sc(Cl)c3C(=O)[C@H]2O1`, the TGI in the assay with MOLT-4 leukemia was 5.11 µM; with CCRF-CEM leukemia, greater than 21.2 µM; in the assay with SNB-19 CNS it was 46.5 µM; with TK-10 renal, greater than 100 µM; with UO-31 renal, 38.3 µM; in the assay on SK-MEL-5 melanoma, greater than 69 µM. Besides, the TGI in the assay with EKVX NSCLC was 27.9 µM; in the assay with MDA-N, greater than 57.5 µM; with MDA-MB-231 breast it was greater than 58.2 µM; in the assay with RPMI-8226 leukemia it was greater than 80.8 µM.

Turning to `O=S(=O)(O)c1ccc(NN(c2c(O)ccc3ccccc23)S(=O)(=O)O)cc1`, the TGI in the assay with MOLT-4 leukemia, in the assay with CCRF-CEM leukemia, in the assay with SNB-19 CNS, in the assay with TK-10 renal, in the assay with UO-31 renal and with SK-MEL-5 melanoma was greater than 100 µM throughout. Besides, the TGI with EKVX NSCLC, in the assay on MDA-N, with MDA-MB-231 breast and in the assay on RPMI-8226 leukemia was greater than 100 µM each time.

In the case of `CCOC(=O)C1(Cc2ccc(C)cc2)Cc2ccc(C)cc2C1=O` (stereo not given), the TGI is 27.7 µM in the assay on MOLT-4 leukemia; 64.1 µM with CCRF-CEM leukemia; greater than 100 µM with SNB-19 CNS; greater than 100 µM with TK-10 renal; greater than 100 µM in the assay on UO-31 renal; 20.8 µM in the assay on SK-MEL-5 melanoma. Further, the TGI in the assay on EKVX NSCLC was greater than 100 µM; with MDA-N, 6.42 µM; in the assay with MDA-MB-231 breast, greater than 100 µM; in the assay with RPMI-8226 leukemia it was 64.2 µM.

On to `C[N+]1(C)C2Cc3ccccc3C1Cc1ccccc12`, for which the TGI with MOLT-4 leukemia, in the assay with CCRF-CEM leukemia, in the assay with SNB-19 CNS, with TK-10 renal, in the assay with UO-31 renal and in the assay with SK-MEL-5 melanoma was greater than 100 µM each time. The TGI with EKVX NSCLC, in the assay with MDA-N, in the assay with MDA-MB-231 breast and with RPMI-8226 leukemia was greater than 100 µM in each case.
